Experimental findings from US20190252037A1 (priority 2016, published 2019) are described below.

The assay concerns FluB polymerase K631A+R634A. The format is binding, human influenza B/Memphis/13/03.

As to “Pol II CTD peptide, four heptad repeats Tyr-Ser-Pro-Thr-SerP-Pro-Ser (28 amino acids), FAM-labelled at the N-terminal end for binding assays (Covalab) [28-mer SeP5 peptide]”, the “decrease in the binding affinity compared to wild type” value is recorded as 2.5 fold.
